Assay results as given in patent US20190125745A1, “TREATMENT AND DIAGNOSIS OF CANCER” (Rgenix, Inc., priority 2014, published 2019).
Where a name gives a salt, the structure may show the parent alone.

What was measured:
[1] = tested on: amyloid plaque pathology and memory deficits; conditions: oral delivery; cited from earlier work
[2] = in vivo; cited from earlier work
[3] = tested on: B16F10 mouse melanoma cells; test: B16F10 tumor growth and metastasis with LXR or ApoE knockdown or knockout; type: in vivo
Experimental: FIG. 12. Therapeutic Delivery of LXR Agonists Upregulates Melanoma-Derived and Systemic ApoE Expression. (A-B) ApoE expression levels, quantified by qRT-PCR, in subcutaneous tumors formed by B16F10 mouse melanoma cells injected into C57BL/6 mice. After 5-mm^3 tumor formation, mice were fed a control diet or diet containing GW3965 (20 mg/kg) (A) or T0901317 (20 mg/kg) (B) for 7 days. n=3-4. (C-E) ApoEtranscript expression in primary tumors (C), lung metastases (D), and brain metastases (E) formed by MeWo human melanoma cells grafted onto NOD Scid mice that were administered control chow or chow supplemented with GW3965 (20 mg/kg). ApoE levels were assessed on day 35 (C), day 153 (D), and day 34 (E) post-injection of the cancer cells. n=3-5. (F) Relative expression levels of LXRα, LXRβ, and ApoE were determined by qRT-PCR in B16F10 mouse melanoma cells expressing a control hairpin or an shRNA targeting mouse LXRα (sh_mLXRα), mouse LXRβ (sh_mLXRβ), or mouse ApoE (sh_mApoE). (G-H) ApoE (G) and ABCA1(H) mRNA levels, measured by qRT-PCR, in B16F10 cells expressing a control shRNA or shRNAs targeting mouse LXRβ or mouse ApoE. The cells were treated with DMSO or GW3965 at 5 μM for 48 hours. n=3. (I) ABCA1 mRNA levels, measured by qRT-PCR, in systemic white blood cells extracted from LXRα −/− or LXRβ −/− mice fed a control diet or a GW3965-supplemented diet (20 mg/kg) for 10 days. n=3-4. (J) Relative expression of ApoE mRNA, expressed as the frequency of SAGE tags, in mouse skin and lung tissues was determined using the public mSAGE Expression Matrix database available through the NCI-funded Cancer Genome Anatomy Project (CGAP). (K) Relative expression of ApoE mRNA, determined by qRT-PCR, in MeWo melanoma cells dissociated from lung metastatic nodules (LM2) or primary tumors relative to control unselected MeWo parental cells. n=3.
FIG. 13. LXRβ Agonism Suppresses Melanoma Tumor Growth and Metastasis by Inducing Melanoma-Derived and Systemic ApoE Expression. […] (B) Quantification of ApoE protein expression based on western blots shown in (A). […] Representative tumor images extracted at the end point are shown in the right panel. n=6-18. (E) ApoE transcript levels, quantified by qRT-PCR, in systemic white blood cells extracted from LXRα −/− or LXRβ −/− mice fed a control diet or a GW3965-supplemented diet (20 mg/kg) for 10 days. n=3-5. (F) Subcutaneous tumor growth by 5×10^4 B16F10 control cells or B16F10 cells expressing an shRNA targeting mouse ApoE (sh_mApoE) in C57BL/6-WT or ApoE−/− mice. […] Representative images of tumors extracted at the final day of measurement (d12) are shown on the right. n=8-18. (G) Lung colonization by 5×10^4 B16F10 cells transduced with a control shRNA or sh_mApoE and intravenously injected into C57BL/6-WT or ApoE−/− mice. […] Lung metastasis was quantified on d22 by bioluminescence imaging. Representative lungs extracted at the end point (d22) are shown in the right panel. n=5-10. (H) ApoE protein expression, determined by blinded immunohistochemical analysis, in non-metastatic (n=39) and metastatic (n=34) primary melanoma skin lesion samples obtained from patients at MSKCC. The fraction of ApoE-positively staining cell area was quantified as a percentage of total tumor area.

[4] = tested on: SK-Mel-334.2 primary human melanoma line; test: Subcutaneous SK-Mel-334.2 tumor growth in immunocompromised mice; type: in vivo; conditions: oral
Experimental: FIG. 4. Therapeutic LXR Activation Inhibits Melanoma Tumor Growth. […] Representative tumor images shown correspond to tumors extracted at the final day (d12). n=10-18 (A), 8-10 (B). (C-E) Primary tumor growth by 1×10^6 MeWo (C), […] SK-Mel-334.2 (D), and 2×10^6 SK-Mel-2 (E) human melanoma cells subcutaneously injected into immunocompromised mice. […] Tumor images shown correspond to last day of measurements. n=6-34 (C), 8 (D), 5 (E). (F) 5×10^4 B16F10 cells were injected subcutaneously into C57BL/6-WT mice. Upon tumor growth to 150 mm^3, mice were fed continuously with a control chow or a chow containing GW3965 (150 mg/kg), and tumor growth was measured daily. n=6-13. […] Tumor volume was calculated as (small diameter)^2×(large diameter)/2. […] Scale bars, 5 mm (A-D), 50 μm (J, K), 25 μm (L).

Q: For `O=C(O)Cc1cccc(OCCCN(Cc2cccc(C(F)(F)F)c2Cl)CC(c2ccccc2)c2ccccc2)c1` [GW3965 108, 3-[3-[N-(2-Chloro-3-trifluoromethylbenzyl)-(2,2-diphenylethyl)amino]propyloxy] phenylacetic acid hydrochloride], which “amyloid plaque pathology and memory deficits” value [1] is on record?
A: improve amyloid plaque pathology and memory deficits

Q: What about the “crossing of the blood brain barrier” value [2] of the same compound?
A: can efficiently cross the blood brain barrier

Q: And the “metastasis suppression upon genetic inactivation of ApoE” value ([3]; ApoE−/− mice, diet 20 mg/kg)?
A: only partially prevented

Q: What about the “suppressing tumor growth in mice genetically inactivated for ApoE” value ([3]; ApoE−/− mice, diet 20 mg/kg) of the same compound?
A: completely ineffective

Q: And the “induction of ApoE expression upon knockdown of mouse melanoma-cell LXRβ” value ([3]; B16F10 cells, 5 μM, 48 hours)?
A: abrogated

Q: What about the “inhibition of metastasis with both melanoma-cell ApoE knockdown and genetic inactivation of systemic ApoE” value ([3]; diet 20 mg/kg) of the same compound?
A: completely blocked

Q: What about the “suppression of tumor growth with melanoma-cell LXRβ knockdown” value ([3]; diet 20 mg/kg, 7 days) of the same compound?
A: unable to prevent

Q: And the “tumor growth inhibition upon depletion of melanoma-cell ApoE” value ([3]; diet 20 mg/kg, 7 days)?
A: did not prevent

Q: What about the “metastasis-suppressive effect upon knockdown of melanoma-cell ApoE” value ([3]; lung colonization, diet 20 mg/kg) of the same compound?
A: partially prevented

Q: What about the “upregulation of systemic ApoE expression in LXR null mice” value ([3]; white blood cells, diet 20 mg/kg, 10 days) of the same compound?
A: abrogated in LXRβ −/−, but not in LXRα −/− mice

Q: And the “inhibition of tumor growth, SK-Mel-334.2” value [4]?
A: 73%
